Laboratory results reported in patent publication US9364479B2, “Use of a receptor-type kinase modulator for treating polycystic kidney disease” (SYMPHONY EVOLUTION, INC., priority 2010, dated 2016).

Experiments:
[1] = biological target: T1, Monoamine Oxidase B, Peripheral (Rattus norvegicus, UniProt P19643); assay: NovaScreen assay; assay type: biochemical; details: read-out: Inhibition, 10 μM XL-647
T1 construct: NovaScreen

[2] = biological target: T2, Choline Acetyltransferase (Homo sapiens, UniProt P28329); assay: NovaScreen assay; assay type: biochemical; details: read-out: Inhibition, 10 μM XL-647
T2 construct: NovaScreen

KDR = KDR (Homo sapiens, UniProt P35968); assay: Mechanism of action study / Ki determination; assay type: biochemical; set-up: residues D807-V1356 of human KDR, Proqinase; purchased Proqinase
Description: Enzymatic activity was measured by standard methods after dilution of the enzyme-inhibitor complex.

[3] = biological target: T3, panel of pharmacological targets, including receptors, transporters, and enzymes; assay: NovaScreen panel, overall statements; assay type: binding; details: muscarinic receptors, α2-adrenergic receptor and dopamine transporter
T3 construct: IC50 values; other: muscarinic receptors, α2-adrenergic receptor and dopamine transporter

[4] = tested on: panel of pharmacological targets, including receptors, transporters, and enzymes; assay: NovaScreen panel, overall statements; assay type: binding; details: single in vitro concentration of 10 μM
[5] = tested on: subjects with relapsed or recurrent NSCLC; assay: Clinical Study XL-647-203 (Phase 2, relapsed or recurrent NSCLC); assay type: in vivo, human; details: n=41
From the text: Study XL-647-203: Subjects (n=41) with relapsed or recurrent NSCLC (Stage IIIB or IV) with documented progressive disease after benefit from single agent treatment with erlotinib or gefitinib or with a known EGFR T790M mutation were enrolled.

[6] = human, in vivo
[7] = tested on: MDA-MB-231 human tumor xenograft; assay: MDA-MB-231 xenograft, tumor growth; assay type: in vivo; details: Mus musculus
Description: Before treatment, H1975, A431, or MDA-MB-231 cells were harvested from exponentially growing cultures, detached by brief trypsinization, washed twice in cold HBSS, resuspended in ice-cold HBSS, and implanted either s.c. (H1975, 3×10^6 cells per mouse) or i.d. (A431, 1×10^6 cells per mouse) into the dorsal hind flank or s.c. into the mammary fat pad (MDA-MB-231, 1×10^6 cells per mouse). Palpable tumors were measured by caliper twice weekly until the mean tumor weight was in the range of ˜80 to 120 mg. Tumor weight was determined by measuring perpendicular diameters with a caliper and multiplying the measurements of diameters in two dimensions: tumor volume (mm^3)/2=length (mm)×width (mm^2)/2. […] The mean tumor weight of each animal in the respective control and treatment groups was determined twice weekly during the dosing periods. […]
The response of tumors to treatment was determined by comparing the mean tumor weight of the treatment group with the appropriate control group. Percentage inhibition of tumor growth was determined with the following formula: Percentage inhibition=100×[1−(Xf−Xo)/(Yf−Yo)], where Xf and Yf are the mean tumor weights of the treatment and control groups, respectively, on day f, and Xo and Yo are the mean tumor weights of treatment and control groups respectively, on day zero (staged tumor weights after grouping)

Calcium Channel, Type N = biological target: T4, Calcium Channel, Type N (Homo sapiens, UniProt Q00975); assay: NovaScreen assay; assay type: binding; details: read-out: Inhibition, 10 μM XL-647
T4 construct: NovaScreen

[8] = tested on: Vasoactive Intestinal Peptide, Non-selective; assay: NovaScreen assay; assay type: binding
p-Y-EGFR = p-Y-EGFR (Homo sapiens, UniProt P00533); assay: In vivo receptor phosphorylation, A431 xenografts; set-up: species or system mouse
[9] = tested on: Glutamate, NMDA Agonist Site; assay: NovaScreen assay; assay type: binding
Glutamate, AMPA Site = assay: NovaScreen assay; assay type: binding
Histamine, H3 = biological target: T5, Histamine, H3 (Homo sapiens, UniProt Q9Y5N1); assay: NovaScreen assay; assay type: binding; details: read-out: Inhibition, 10 μM XL-647
T5 construct: NovaScreen

[10] = human, in vivo; remark: listed apart in the source
Description: Food effect on bioavailability was analyzed.

[11] = biological target: T6, EGFR phosphorylation (H1975 cells) (Homo sapiens, UniProt P00533, L858R/T790M); assay: Immunoblot analysis of H1975 cell lysates; assay type: cell-based
T6 construct: host or cells: H1975 (cultured cells; s.c. xenografts in mice)
Description: For the H1975 immunoblot studies, 3×10^5 cells were plated in each well (12-well plate) and incubated for 16 h in complete RPMI 1640, rinsed with fetal bovine serum-free RPMI 1640, and incubated with serial dilutions of test compounds in fetal bovine serum-free medium for 2 h followed by stimulation with 100 ng/mL human recombinant EGF for 10 min. Whole-cell protein lysates were prepared as described above and centrifuged for 10 min at 13,000×g at 4° C. to remove any insoluble material. Total protein was determined using bicinchoninic acid reagent and an equal amount of protein was combined with LDS loading buffer (Invitrogen) according to the manufacturer's instructions. Proteins were separated by gel electrophoresis on 4% to 15% polyacrylamide gels, transferred to nitrocellulose membranes, and detected by immunoblotting. Antibody:antigen complexes were detected using chemiluminescence. The following antibodies from Cell Signaling Technology were used at a 1:1,000 dilution: anti-EGFR, anti-pEGFR^Tyr1068, anti-AKT, anti-pAKT^Ser473, anti-ERK, and anti-pERK^Thr202/Tyr204. The anti-β-actin primary antibody (Accurate Chemical and Scientific) was used at 1:10,000 and the horseradish peroxidase-coupled secondary antibodies were purchased from Jackson ImmunoResearch and used at 1:5,000.

Sequence of KDR (P35968 807-1356): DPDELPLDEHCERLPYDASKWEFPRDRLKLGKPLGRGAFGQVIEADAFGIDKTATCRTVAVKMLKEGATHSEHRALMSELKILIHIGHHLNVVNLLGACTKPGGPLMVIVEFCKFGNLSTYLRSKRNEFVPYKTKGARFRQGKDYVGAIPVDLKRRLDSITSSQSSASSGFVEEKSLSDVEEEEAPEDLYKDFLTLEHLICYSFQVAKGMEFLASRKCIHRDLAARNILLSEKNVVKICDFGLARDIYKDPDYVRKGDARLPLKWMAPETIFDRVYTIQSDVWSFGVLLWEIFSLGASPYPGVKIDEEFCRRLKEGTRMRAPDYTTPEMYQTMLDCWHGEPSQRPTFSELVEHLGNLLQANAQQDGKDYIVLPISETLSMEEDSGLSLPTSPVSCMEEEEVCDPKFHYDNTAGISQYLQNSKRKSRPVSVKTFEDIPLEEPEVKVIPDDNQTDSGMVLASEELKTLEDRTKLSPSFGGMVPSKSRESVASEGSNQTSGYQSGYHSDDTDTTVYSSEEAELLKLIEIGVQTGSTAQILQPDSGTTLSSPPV
T4 sequence (Q00975 whole entry): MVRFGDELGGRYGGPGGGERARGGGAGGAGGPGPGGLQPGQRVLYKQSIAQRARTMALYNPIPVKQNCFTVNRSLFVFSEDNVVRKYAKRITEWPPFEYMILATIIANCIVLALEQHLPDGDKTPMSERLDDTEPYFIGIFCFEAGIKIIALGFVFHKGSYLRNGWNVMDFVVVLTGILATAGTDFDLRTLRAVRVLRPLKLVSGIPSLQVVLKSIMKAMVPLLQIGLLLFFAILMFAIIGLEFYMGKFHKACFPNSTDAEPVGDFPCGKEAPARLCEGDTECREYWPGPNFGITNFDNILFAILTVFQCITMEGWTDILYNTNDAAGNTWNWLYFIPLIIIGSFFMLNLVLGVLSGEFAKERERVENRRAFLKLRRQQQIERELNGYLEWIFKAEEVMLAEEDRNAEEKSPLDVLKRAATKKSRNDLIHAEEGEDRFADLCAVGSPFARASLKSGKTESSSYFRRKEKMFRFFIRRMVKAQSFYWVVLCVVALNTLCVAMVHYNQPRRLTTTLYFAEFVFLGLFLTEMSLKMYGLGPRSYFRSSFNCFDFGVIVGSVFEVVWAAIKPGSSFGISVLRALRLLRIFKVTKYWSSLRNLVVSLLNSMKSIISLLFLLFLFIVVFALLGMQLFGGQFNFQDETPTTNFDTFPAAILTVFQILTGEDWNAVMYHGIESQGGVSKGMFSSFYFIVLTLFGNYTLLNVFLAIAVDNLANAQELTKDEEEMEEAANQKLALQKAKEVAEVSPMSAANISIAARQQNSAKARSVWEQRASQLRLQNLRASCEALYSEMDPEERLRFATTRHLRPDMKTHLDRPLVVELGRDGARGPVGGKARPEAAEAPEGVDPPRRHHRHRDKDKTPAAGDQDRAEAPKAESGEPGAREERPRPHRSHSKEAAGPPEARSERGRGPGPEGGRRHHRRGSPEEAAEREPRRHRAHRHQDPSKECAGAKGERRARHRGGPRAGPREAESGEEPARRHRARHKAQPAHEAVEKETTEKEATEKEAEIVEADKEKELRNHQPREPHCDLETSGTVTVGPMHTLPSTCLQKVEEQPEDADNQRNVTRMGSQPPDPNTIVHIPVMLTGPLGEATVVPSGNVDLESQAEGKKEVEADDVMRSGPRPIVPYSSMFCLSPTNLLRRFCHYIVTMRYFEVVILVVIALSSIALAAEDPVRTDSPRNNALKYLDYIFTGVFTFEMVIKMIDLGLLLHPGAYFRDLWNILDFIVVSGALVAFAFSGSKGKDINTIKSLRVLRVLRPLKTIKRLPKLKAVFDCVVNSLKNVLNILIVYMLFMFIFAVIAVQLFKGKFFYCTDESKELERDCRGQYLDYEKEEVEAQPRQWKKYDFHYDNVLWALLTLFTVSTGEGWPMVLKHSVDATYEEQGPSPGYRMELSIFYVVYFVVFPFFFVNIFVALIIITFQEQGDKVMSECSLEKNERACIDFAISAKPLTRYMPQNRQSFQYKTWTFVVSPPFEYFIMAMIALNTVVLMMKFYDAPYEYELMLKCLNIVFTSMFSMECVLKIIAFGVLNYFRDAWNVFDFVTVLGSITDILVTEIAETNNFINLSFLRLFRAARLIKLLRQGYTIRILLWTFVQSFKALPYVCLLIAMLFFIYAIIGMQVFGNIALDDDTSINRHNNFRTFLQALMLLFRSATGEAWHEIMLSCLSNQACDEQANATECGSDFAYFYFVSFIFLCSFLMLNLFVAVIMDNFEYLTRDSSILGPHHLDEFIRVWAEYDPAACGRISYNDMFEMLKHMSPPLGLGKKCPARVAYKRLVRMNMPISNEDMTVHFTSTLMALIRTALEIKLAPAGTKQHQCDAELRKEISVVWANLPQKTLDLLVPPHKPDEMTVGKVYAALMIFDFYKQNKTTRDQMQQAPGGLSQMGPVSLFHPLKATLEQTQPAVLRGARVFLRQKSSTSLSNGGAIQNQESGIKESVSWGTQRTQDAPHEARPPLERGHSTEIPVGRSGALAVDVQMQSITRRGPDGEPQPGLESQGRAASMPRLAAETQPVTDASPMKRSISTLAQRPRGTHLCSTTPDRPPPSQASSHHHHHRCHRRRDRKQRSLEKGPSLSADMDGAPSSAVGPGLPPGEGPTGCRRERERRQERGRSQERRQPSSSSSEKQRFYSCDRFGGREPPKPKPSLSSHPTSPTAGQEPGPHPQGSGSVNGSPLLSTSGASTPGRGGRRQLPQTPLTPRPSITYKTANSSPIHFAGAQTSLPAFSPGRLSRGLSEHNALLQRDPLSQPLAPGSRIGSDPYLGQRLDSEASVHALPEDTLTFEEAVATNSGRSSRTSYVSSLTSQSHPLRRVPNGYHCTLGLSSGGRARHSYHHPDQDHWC
T2 sequence (P28329 whole entry): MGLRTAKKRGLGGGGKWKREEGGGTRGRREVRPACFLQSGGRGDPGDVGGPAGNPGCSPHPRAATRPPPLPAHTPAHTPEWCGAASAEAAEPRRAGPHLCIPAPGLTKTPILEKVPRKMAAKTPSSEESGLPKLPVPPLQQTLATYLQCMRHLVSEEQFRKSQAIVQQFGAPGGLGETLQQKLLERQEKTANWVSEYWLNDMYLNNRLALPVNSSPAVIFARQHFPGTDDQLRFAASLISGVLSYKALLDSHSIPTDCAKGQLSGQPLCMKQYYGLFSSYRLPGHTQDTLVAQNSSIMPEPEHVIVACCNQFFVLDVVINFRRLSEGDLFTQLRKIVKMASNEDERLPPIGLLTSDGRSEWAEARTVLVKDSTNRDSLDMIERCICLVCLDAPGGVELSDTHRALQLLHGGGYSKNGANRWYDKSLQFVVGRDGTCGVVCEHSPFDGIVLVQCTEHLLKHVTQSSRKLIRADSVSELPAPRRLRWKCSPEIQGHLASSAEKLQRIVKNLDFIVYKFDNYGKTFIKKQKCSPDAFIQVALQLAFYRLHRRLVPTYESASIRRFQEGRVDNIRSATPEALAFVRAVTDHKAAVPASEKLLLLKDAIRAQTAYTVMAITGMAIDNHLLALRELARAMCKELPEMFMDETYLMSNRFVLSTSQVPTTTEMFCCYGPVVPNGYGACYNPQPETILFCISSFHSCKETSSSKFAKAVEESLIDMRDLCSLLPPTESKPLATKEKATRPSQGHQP
T1 sequence (P19643 whole entry): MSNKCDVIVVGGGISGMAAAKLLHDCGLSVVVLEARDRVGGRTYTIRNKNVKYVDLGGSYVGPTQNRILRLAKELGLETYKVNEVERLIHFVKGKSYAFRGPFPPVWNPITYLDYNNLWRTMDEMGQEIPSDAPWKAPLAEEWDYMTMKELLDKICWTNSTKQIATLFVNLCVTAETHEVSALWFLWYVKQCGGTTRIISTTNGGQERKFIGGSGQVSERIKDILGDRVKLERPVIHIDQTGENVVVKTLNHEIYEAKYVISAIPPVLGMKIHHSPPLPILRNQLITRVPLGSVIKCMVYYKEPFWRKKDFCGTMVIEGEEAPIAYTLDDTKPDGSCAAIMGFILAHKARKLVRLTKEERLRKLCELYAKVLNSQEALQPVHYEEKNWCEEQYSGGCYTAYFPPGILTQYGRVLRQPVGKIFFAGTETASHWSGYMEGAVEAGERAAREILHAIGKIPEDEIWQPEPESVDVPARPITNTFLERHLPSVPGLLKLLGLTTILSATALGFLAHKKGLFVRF
T5 sequence (Q9Y5N1 whole entry): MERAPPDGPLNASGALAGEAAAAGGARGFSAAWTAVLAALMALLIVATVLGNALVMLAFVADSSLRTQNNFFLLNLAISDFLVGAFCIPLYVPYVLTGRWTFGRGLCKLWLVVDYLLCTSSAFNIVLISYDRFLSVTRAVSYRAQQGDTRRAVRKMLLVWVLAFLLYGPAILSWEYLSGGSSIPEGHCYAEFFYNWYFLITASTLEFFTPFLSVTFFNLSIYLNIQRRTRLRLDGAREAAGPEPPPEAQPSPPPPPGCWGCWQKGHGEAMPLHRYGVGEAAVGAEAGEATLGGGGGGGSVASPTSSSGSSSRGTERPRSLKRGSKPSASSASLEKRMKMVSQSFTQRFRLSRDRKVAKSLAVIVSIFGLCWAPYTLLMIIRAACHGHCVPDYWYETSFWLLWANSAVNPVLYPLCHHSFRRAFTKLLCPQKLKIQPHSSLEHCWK

Question: Which results are given for `COc1cc2c(Nc3ccc(Cl)c(Cl)c3F)ncnc2cc1OC[C@@H]1C[C@@H]2CN(C)C[C@@H]2C1` [XL-647, N-(3,4-dichloro-2-fluorophenyl)-7-({[(3aR,5r,6aS)-2-methyloctahydrocyclopenta[c]pyrrol-5-yl]methyl}oxy)-6-(methyloxy)quinazolin-4-amine]?
Answer: inhibition at 10 µM [1]: 2.03%; inhibition at 10 µM [2]: 1.27%; ATP-Competitive (KDR): Yes; Ki (KDR): 0.0006 µM; Reversible (KDR): Yes; IC50 [3]: 1 to 2.7 µM; interaction with the panel, in words [4]: interact with very few of the pharmacological targets; subjects with PR [5]: one; subjects with SD as best response [5]: 19 subjects; most common adverse events (frequency ≧10%) [6]: diarrhea, rash, fatigue, nausea, dry skin, cough, dyspnoea, anorexia, electrocardiogram QT prolongation (machine-read), vomiting, constipation, dysgeusia, upper respiratory tract infection, abdominal pain, back pain, pyrexia, dizziness, and dry mouth; ED50 ([7]; MDA-MB-231, qd × 14): 21.9 mg/kg; ED50 ([7]; MDA-MB-231, qd × 28): 22.9 mg/kg; inhibition at 10 µM (Calcium Channel, Type N): 16.8%; Inhibition, 10 μM XL-647 [8]: 17.02%; Single Dose Duration of Action (100 mg/kg, >50% inhibition) (p-Y-EGFR; A431 xenografts): >72 h; inhibition at 3 mg/kg (p-Y-EGFR; A-431, mouse, 3 mg/kg, dosed 3.5 hours before EGF): 41%; inhibition at 10 mg/kg (p-Y-EGFR; A-431, mouse, 10 mg/kg, dosed 3.5 hours before EGF): 70%; inhibition at 30 mg/kg (p-Y-EGFR; A-431, mouse, 30 mg/kg (plasma 4 μM), dosed 3.5 hours before EGF): 89%; inhibition at 100 mg/kg (p-Y-EGFR; A-431, mouse, 100 mg/kg, dosed 3.5 hours before EGF): 93%; IC50 (p-Y-EGFR; in vivo, A431 xenografts, PO, read-out: Estimated IC50 (plasma concentration)): 0.72 µM; Inhibition, 10 μM XL-647 [9]: −1.66%; Inhibition, 10 μM XL-647 (Glutamate, AMPA Site): 10.79%; inhibition at 10 µM (Histamine, H3): 38.6%; AUC increase in the presence of food [10]: approximately 18%; Cmax increase in the presence of food [10]: about 5%; phosphorylation of EGFR, immunoblot [11]: inhibits phosphorylation of EGFR
